Values belong to the compound of their own block, whether it stands above or below them.
Columns and labels:
[1] = tested on: bilaterally ovariectomized immature rats; test: Estrogen agonistic activity (uterine weight gain); format: in vivo, rat; conditions: 0.01 mg/kg/d, oral, 3 days
Description: The test agents were administered once daily for 3 consecutive days by the oral route and uterine weight gain over the corresponding vehicle control group was determined. 17α-Ethynylestradiol was used as reference standard.

[2] = tested on: Cladosporium cladosporioides; conditions: Bandara et al. 1989/1990; cited from earlier work
[3] = tested on: osteoblasts; test: Quantification of alkaline phosphatase activity in osteoblasts; format: cell-based, Balb/c mouse; design: alkaline phosphatase activity: unit not given here; conditions: 48 h; for alkaline phosphatase activity: Control 1.87 ± 0.20, Mean±SEM
Description: (§1) Neonatal mouse calvarial cell cultures are prepared as described previously (Endocrinology 139:4743) using slight modification. Briefly, for primary osteoblast cell cultures, frontal and parietal bones from Balb/c mouse neonates (1-3 day old) are digested in 0.1% collagenase/0.1% dispase in α-MEM to obtain 5 sequential digests. The second through fifth digests are combined and grown to confluence at 37° C. and 5% CO2 in air in α-MEM, supplemented with 10% fetal bovine serum (FBS), 2 mM glutamine, 100 U/ml penicillin-streptomycin, Non-essential amino acid solution and sodium pyruvate. The effect of test agents is analysed using the following tests:
p-Nitrophenol phosphate is a colorless substrate which is hydrolysed to colored p-nitrophenol by alkaline phosphatase enzyme. Rate of hydrolysis of p-nitrophenol phosphate is proportional to enzyme present in sample. […] Findings reveal that all the five pure compounds nos.

[4] = tested on: osteoblast cells; test: Quantification of mineralization in osteoblasts (Alizarin red, acetic acid extraction); format: cell-based, Balb/c mouse; conditions: osteoblasts cultured 7 days; vs vehicle control; FIG. 13
Description: as §1
For quantification of mineralization which is measured with increased deposition of nascent calcium in osteoblast cells, cells were cultured in the presence of test compounds for 7 days and stained with Alizarin red. Alizarin red was extracted with acetic acid and the intensity of stain, which is directly proportion to the extent of mineralisation, is read at 405 nm.

[5] = tested on: osteoblasts cultured on sterile bovine bone slices; test: Mineralisation by osteoblasts cultured on bovine bone slices, Alizarin red staining; format: cell-based, Balb/c mouse; conditions: 15 days, FIGS. 14 and 15
Description: as §1
(§2) Cells are seeded onto sterile bovine bone slices in 96-well plate and treated with the culture medium containing α-MEM, supplemented with 10% fetal bovine serum, 2 mM glutamine, 100 U/ml penicillin-streptomycin, non-essential amino acid solution, sodium pyruvate, 10 mM P-glycerophosphate and 50 μg/ml ascorbic acid. Culture medium is changed every alternate day. At termination of the culture, cells are washed twice with PBS, fixed in cold 70% ethanol for 1 h and washed once with water and stained with 40 mM Alizarin red (pH 4.7) for 30 min and then washed in PBS to remove excess staining.
as §2, with “In case of osteoblasts” for “Cells are”, “slices, the cells are cultured” for “slices”, “in A-MEM” for “and treated with the culture medium containing α-MEM,”, “p-glycerophosphate” for “P-glycerophosphate”, “acid in the absence or presence of test compounds or their mixtures.” for “acid.”, “culture after 15 days,” for “culture,”

[6] = tested on: primary osteoblasts; test: MTT assay for cell proliferation, primary osteoblast cell culture; format: cell-based, Balb/c mouse; conditions: 24 h; for Osteoblast cell proliferation (MTT assay): Vehicle 0.60 ± 0.06, Mean±SEM
Description: as §1
MTT assay is a common assay used for assessing cell proliferation where tetrazolium salt is reduced to formazone crystals by the mitochondrial dehydrogenase enzyme, which are then dissolved in DMSO. More the number of metabolically active cells more will be the formazone crystals formed. Briefly, osteoblast cells are maintained in α-MEM medium supplemented with 10% FCS and 1% antibiotic solution in 96 well plate. When the cells attain 40% confluency, they are treated in presence or absence of test agents in 2% FCS supplemented media for 24 h. Twenty-four hours thereafter, MTT salt is added to the cells. After 4 h, the formazone crystals formed are dissolved in DMSO and readings taken at wavelength of 570 nm.
This assay is based on the ability of viable cells to reduce tetrazolium salt to form formazone crystals by mitochondrial dehydrogenase enzyme. In MTT assay, osteoblasts are maintained in α-MEM medium supplemented with 10% FCS and 1% antibiotic solution in 96 well plate. When the cells attain 40% confluency, they are treated in presence or absence of test agents in 2% FCS supplemented media for 24 h. Twenty-four hours thereafter, MTT salt is added to the cells. After 4 h, the formazone crystals formed due to reduction of tetrazolium salt by mitochondrial dehydrogenase enzyme are dissolved in DMSO and readings taken at wavelength of 570 nm. All the five pure compounds nos.

[7] = tested on: osteoblasts; test: Osteogenic activity of isolated compounds based on alkaline phosphatase expression, MTT and mineralisation in vitro; format: cell-based
Excerpt: K051, K052, K054, K080, K082 (isolated from n-butanol soluble fraction) and K095 (isolated from chloroform soluble fraction) (FIGS. 11-15; Tables 10-11).

[8] = tested on: MCF-7 (human cancer breast) cell line; test: MTT proliferation assay in MCF-7 cell line; format: cell-based; conditions: 10 nM and 1 μM; MCF-7 cells; FIG. 2
[9] = tested on: PTH-induced resorption of ^45Ca from chick fetal bones in culture; test: Chick fetal bone culture assay, bone antiresorbing activity; format: cell-based; conditions: 100 μM; vehicle 1.03; T/C close to unity = no antiresorbing activity
Description: A slight modification of the method of Raisz (Nature 197: 1015-1016, 1963) was employed. Femur bones are isolated from chick embryos on day 11 post-ovulation and cleared of adhering connective tissue by carefully rotating each bone on dry Whatman (I) filter paper under stereomicroscope. Each femur bone is then placed in a drop of PBS before culturing in BGJb medium (pH 7.3) supplemented with penicillin (0.075 mg/ml), streptomycin (0.05 mg/ml), HEPES (2.382 mg/ml) and BSA (1 mg/ml), transferred to BGJb culture medium containing ^45CaCl2 (0.5 μCi/300 μl culture medium) and incubated for 2 h at 37° C. under 5% CO2 in air. Labeled femur bones are then washed with BGJb medium for 24 h at 37° C. under 5% CO2 in air. An aliquot of the medium was withdrawn for the measurement of ^45Ca released into the medium from bone during the first 24 h. […] Radioactivity due to ^45Ca in the spent medium collected at 24, 48 and 96 h of culture and HCl extract at 96 h of culture is quantified by Liquid Scintillation Spectrophotometer in 10 ml of the scintillation fluid (ACS II scintillation cocktail, Amersham Biosciences, UK). […] Bone anti-resorbing activity is expressed as percentage of ^45Ca released into the culture medium and the effect of the agent of invention as percent of the corresponding contra-lateral control or T/C ratio as shown below. […]

[10] = tested on: Ishikawa (human uterine glandular epithelial carcinoma) cell line; test: MTT proliferation assay in Ishikawa cell line; format: cell-based; conditions: 10 nM and 1 μM; Ishikawa cells; FIG. 2
[11] = tested on: labeled chick fetal bones in culture; test: Chick fetal bone culture assay, bone forming activity; format: cell-based; conditions: 0.4 μM; T/C close to unity = no bone forming activity
Description: A slight modification of the method of Raisz (Nature 197: 1015-1016, 1963) was employed. Femur bones are isolated from chick embryos on day 11 post-ovulation and cleared of adhering connective tissue by carefully rotating each bone on dry Whatman (I) filter paper under stereomicroscope. Each femur bone is then placed in a drop of PBS before culturing in BGJb medium (pH 7.3) supplemented with penicillin (0.075 mg/ml), streptomycin (0.05 mg/ml), HEPES (2.382 mg/ml) and BSA (1 mg/ml), transferred to BGJb culture medium containing ^45CaCl2 (0.5 μCi/300 μl culture medium) and incubated for 2 h at 37° C. under 5% CO2 in air. Labeled femur bones are then washed with BGJb medium for 24 h at 37° C. under 5% CO2 in air. […]
Contralateral femur of each fetus serves as corresponding control. […] Radioactivity due to ^45Ca in the spent medium collected at 24, 48 and 96 h of culture and HCl extract at 96 h of culture is quantified by Liquid Scintillation Spectrophotometer in 10 ml of the scintillation fluid (ACS II scintillation cocktail, Amersham Biosciences, UK). […]
Bone forming activity (cpm)=A×(A/B)^1/2 ×Total radioactivity incorporated into bone during 24 h incubation with ^45Ca
where total radioactivity refers to ^45Ca released into the medium during first 24 hrs incubation+^45Ca released into the medium during 24 to 96 hr of incubation+^45Ca remaining in the femur. […]

Compound: C#C[C@]1(O)CC[C@H]2[C@@H]3CCc4cc(O)ccc4[C@H]3CC[C@@]21C [17α-Ethynylestradiol]
Uterine weight gain [1]: 514%

osteogenic activity [7]: promising osteogenic activity
Compound: COc1ccc2c(c1)OC1c3ccc(O)cc3OCC21 (centres unmarked) [Compound K095, 3-hydroxy-9-methoxypterocarpans]
activity against Cladosporium cladosporioides [2]: active
alkaline phosphatase activity ([3]; 10^−5 M): 3.28 ± 0.07
alkaline phosphatase activity ([3]; 10^−6 M): 3.42 ± 0.07
alkaline phosphatase activity ([3]; 10^−7 M): 3.50 ± 0.07
alkaline phosphatase activity ([3]; 10^−8 M): 3.35 ± 0.10
alkaline phosphatase activity ([3]; 10^−9 M): 3.54 ± 0.04
alkaline phosphatase activity ([3]; 10^−10 M): 3.40 ± 0.07
expression of alkaline phosphatase vs vehicle control ([3]; 10^−11 M to 10^−5 M): increased expression of alkaline phosphatase
alkaline phosphatase activity ([3]; 10^−11 M): 3.51 ± 0.01
mineralisation quantified by alizarin extraction method [4]: enhanced mineralisation
relative potency in mineralisation on bovine bone slices [5]: most potent
intensity of alizarin red staining (rate of new bone formation) ([5]; osteoblasts on bovine bone slices, alone or in combination): increased intensity of alizarin red staining
Osteoblast cell proliferation (MTT assay) ([6]; 10^−5 M): 1.28 ± 0.08
Osteoblast cell proliferation (MTT assay) ([6]; 10^−6 M): 1.47 ± 0.14
Osteoblast cell proliferation (MTT assay) ([6]; 10^−7 M): 1.35 ± 0.16
Osteoblast cell proliferation (MTT assay) ([6]; 10^−8 M): 1.24 ± 0.18
Osteoblast cell proliferation (MTT assay) ([6]; 10^−9 M): 1.14 ± 0.19
Osteoblast cell proliferation (MTT assay) ([6]; 10^−10 M): 1.38 ± 0.18
osteoblast cell proliferation vs vehicle control ([6]; 10^−11 M to 10^−5 M): enhanced osteoblast cell proliferation
Osteoblast cell proliferation (MTT assay) ([6]; 10^−11 M): 1.05 ± 0.03

Compound: C[C@]12CC[C@@H]3c4ccc(O)cc4CC[C@H]3[C@@H]1CC[C@@H]2O [Estradiol-17β]
proliferation [8]: marked increase in proliferation
T/C ratio (PTH-induced resorption of ^45Ca) [9]: 0.37
proliferation [10]: marked increase in proliferation

Compound: PTH (aa 1-34): Parathyroid hormone (PTH; aa 1-34), an osteogenic agent, taken as positive control (SVSEIQLMHNLGKHLNSMERVEWLRKKLQDVHNF; Parathyroid hormone; UniProt P01270 32-65, looked up, fragment)
T/C ratio (bone forming activity) [11]: 0.44

Reference: patent publication US20090221690A1, “Pharmaceutical Composition for the Prevention/Treatment of Bone Disorders and a Process for the Preparation Thereof” (COUNCIL OF SCIENTIFIC AND INDUSTRIAL RESEARCH, priority 2006, published 2009)
